#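 Interpolation was linear, between the two tested concentrations surrounding the appropriate level; five concentrations were tested over 48 hours in 96-well plates. GI50 marks 50% less growth.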 Active and inactive are the calls of the source. No stated cut-off is given here; in the data, active = GI50 up to about 1.1 µM and inactive = higher.
# Key:
# Assay in all cases: growth of human tumour cells (NCI), 48 h
# RPMI-8226 = test system: RPMI-8226
# UO-31 = test system: UO-31
# SF-268 = test system: SF-268
# SNB-75 = test system: SNB-75
# HT-29 = test system: HT-29
# NCI-H522 = test system: NCI-H522
# KM12 = test system: KM12
# DU-145 = test system: DU-145
# U-251 = test system: U-251
# OVCAR-5 = test system: OVCAR-5
# SK-OV-3 = test system: SK-OV-3
# OVCAR-4 = test system: OVCAR-4
# Malme-3M = test system: Malme-3M
# NCI-H226 = test system: NCI-H226
# TK-10 = test system: TK-10
# HCT-116 = test system: HCT-116
# LOX IMVI = test system: LOX IMVI
# MDA-MB-435 = test system: MDA-MB-435
# MOLT-4 = test system: MOLT-4
# MDA-N = test system: MDA-N
# A498 = test system: A498
# COLO 205 = test system: COLO 205
# SR = test system: SR
# OVCAR-8 = test system: OVCAR-8
# Hs-578T = test system: Hs-578T
# UACC-62 = test system: UACC-62
# SN12C = test system: SN12C
# A549 = test system: A549
# EKVX = test system: EKVX
# MCF7 = test system: MCF7
# PC-3 = test system: PC-3
# IGROV-1 = test system: IGROV-1
# SK-MEL-5 = test system: SK-MEL-5
# SK-MEL-2 = test system: SK-MEL-2
# NCI/ADR-RES = test system: NCI/ADR-RES
# HOP-62 = test system: HOP-62
# NCI-H23 = test system: NCI-H23
# SF-295 = test system: SF-295
# K562 = test system: K562
# OVCAR-3 = test system: OVCAR-3
# MDA-MB-231 = test system: MDA-MB-231
# HOP-92 = test system: HOP-92
# SK-MEL-28 = test system: SK-MEL-28
# SW-620 = test system: SW-620
# ACHN = test system: ACHN
# 786-0 = test system: 786-0
# SNB-19 = test system: SNB-19
# HCT-15 = test system: HCT-15
# M14 = test system: M14
smiles,measurement,setting,value
COc1cc(C(=O)N2CCN(C=O)C2=S)cc(OC)c1OC,GI50,RPMI-8226,7.31 µM (inactive)
same,GI50,UO-31,0.0675 µM (active)
CSC1=N/C(=C\c2ccc(C)cc2)C(=O)N1CN1CCCCC1,GI50,SF-268,61.8 µM (inactive)
same,GI50,SNB-75,69.5 µM (inactive)
same,GI50,HT-29,38.5 µM (inactive)
same,GI50,NCI-H522,> 100 µM (inactive)
same,GI50,KM12,> 100 µM (inactive)
same,GI50,DU-145,> 100 µM (inactive)
same,GI50,U-251,> 100 µM (inactive)
same,GI50,OVCAR-5,> 100 µM (inactive)
same,GI50,SK-OV-3,> 100 µM (inactive)
same,GI50,OVCAR-4,22.4 µM (inactive)
same,GI50,Malme-3M,> 100 µM (inactive)
same,GI50,NCI-H226,> 100 µM (inactive)
same,GI50,TK-10,> 100 µM (inactive)
same,GI50,HCT-116,84.9 µM (inactive)
same,GI50,LOX IMVI,34.3 µM (inactive)
same,GI50,MDA-MB-435,> 100 µM (inactive)
same,GI50,MOLT-4,> 100 µM (inactive)
same,GI50,MDA-N,> 100 µM (inactive)
same,GI50,A498,> 100 µM (inactive)
same,GI50,COLO 205,73.1 µM (inactive)
same,GI50,SR,89.7 µM (inactive)
same,GI50,OVCAR-8,> 100 µM (inactive)
same,GI50,Hs-578T,56.5 µM (inactive)
same,GI50,UACC-62,> 100 µM (inactive)
same,GI50,SN12C,> 100 µM (inactive)
same,GI50,A549,83.4 µM (inactive)
same,GI50,EKVX,75.3 µM (inactive)
same,GI50,MCF7,88.1 µM (inactive)
same,GI50,PC-3,72.4 µM (inactive)
same,GI50,IGROV-1,46.6 µM (inactive)
same,GI50,SK-MEL-5,> 100 µM (inactive)
same,GI50,SK-MEL-2,> 100 µM (inactive)
same,GI50,NCI/ADR-RES,84.7 µM (inactive)
same,GI50,HOP-62,> 100 µM (inactive)
same,GI50,NCI-H23,> 100 µM (inactive)
same,GI50,SF-295,> 100 µM (inactive)
same,GI50,RPMI-8226,32.3 µM (inactive)
same,GI50,K562,74 µM (inactive)
same,GI50,OVCAR-3,> 100 µM (inactive)
same,GI50,MDA-MB-231,> 100 µM (inactive)
same,GI50,HOP-92,67.3 µM (inactive)
same,GI50,SK-MEL-28,> 100 µM (inactive)
same,GI50,SW-620,44.7 µM (inactive)
same,GI50,ACHN,59.6 µM (inactive)
same,GI50,786-0,88.7 µM (inactive)
same,GI50,UO-31,37.2 µM (inactive)
same,GI50,SNB-19,> 100 µM (inactive)
same,GI50,HCT-15,73.8 µM
same,GI50,M14,> 100 µM (inactive)

# Source: ChEMBL document CHEMBL1201862, “PubChem BioAssay data set” (2004)
